# From patent publication US20250188078A1, “SMALL MOLECULE INHIBITORS OF THE CRL4 UBIQUITIN LIGASE” (Cornell University, priority 2022, published 2025)
# Where two headings read alike, the source gives them in different places.
# Columns and labels:
# DDB1-BPB = DDB1-BPB (Homo sapiens (Human), UniProt Q16531); assay: Microscale Thermophoresis (MST) binding to DDB1-BPB; details: labeled DDB1-BPB, 25° C.
# Procedure: Kd represents dissociation constant, which measures the affinity of small molecule binding to the scaffold DDB1-BPB by Microscale Thermophoresis (MST) (see Table 1, column 9). MST experiments were performed on a Monolith NT 115 system (Nano Temper Technologies, Munich, Germany) using 100% LED and 60% IR-laser power (https://physiology.case.edu/media/eq manuals/eq_manual_nano-temper_mst_starting_guide.pdf, hereby incorporated by reference in its entirety for all purposes). The labeling of DDB1-BPB ([…]) was performed in labeling buffer with NHS-Red reactive dye (30 μM) (Nanotemper), which reacts efficiently with the primary amines of the proteins to form a stable dye protein conjugates. The labeling reaction was carried out at RT. A 16-point serial dilution (1:1) was prepared for compound at the final concentration ranged from 200 µM to 3 nM in PBS containing 0.05% tween. The samples were filled into Premium capillaries and measurements were conducted at 25° C. An equation implemented by the software MO-S002 MO Affinity Analysis, provided by the manufacturer, was used for fitting normalized fluorescence values at different concentrations of ligands.
# [1] = test system: CUL4A-Vpr-dependent UNG2 degradation in Hela DOX-inducible-Vpr cells; assay: DOX-induced Vpr-mediated CUL4-dependent UNG2 degradation (Western blot); type: cell-based; details: FIG. 6C
# Procedure: FIG. 6C. Inhibition of DOX-induced Vpr-mediated CUL4-dependent UNG2 degradation by small molecule CUL4 inhibitors. In brief, Hela DOX-inducible-Vpr cells were seeded in 6-well plates. After 24 hours incubation, medium was changed to growth medium with 75 ng/ml doxycycline (DOX) overnight. On the third day, DMSO or indicated concentrations of compounds in serum-free medium containing DOX were added. The cells were lysed in buffer containing 150 mM NaCl, 1% SDS, 10 mM Tris-HCl (pH 6.8), 1× complete protease inhibitor cocktail and 10 U Benzo nuclease. Equal amounts of proteins were resolved on 9% SDS-PAGE gel and UNG2 levels were detected using anti-UNG2 (2C12) antibody (Origene #TA503563). α-tubulin (Proteintech, #66031-1-Ig) was used as an internal control. Normalized UNG2/α-tubulin ratio is higher in the compound treated sample than DMSO treated sample. (−) means that no change happens between compound treated sample with control sample.
# [2] = target: CUL4A-DDB1-BPB interaction (Homo sapiens (Human), UniProt Q16531); assay: AlphaLISA in vitro binding assay, CUL4A and DDB1-BPB binding; details: inhibition of CUL4A and DDB1-BPB binding
# How it was run: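 Compound disruption of CUL4A binding to DDB1-BPB measured by AlphaLISA/AlphaScreen bead proximity in 384-well format. IC50 from nonlinear log(inhibitor)-vs-response curve fit.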
# [3] = test system: CUL4A^high MDA-MB-468 breast cancer cells; assay: Cell killing in CUL4-high MDA-MB-468 cells (CellTiter Glo); type: cell-based; details: Homo sapiens, 8 days treatment
# How it was run: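 Cells seeded, treated after 24 h with DMSO or compound (0 to 20 μM). Medium and compound replaced every 48 h over 8 days. Viability measured by CellTiter-Glo luminescence; EC50 (50% killing) from log(inhibitor) vs response nonlinear fit.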
# [4] = 192 h, MDA-MB-468 cells, read-out: EC50 CUL4-High Cells (cell killing)
# CUL4A-DDB1-BPB interaction, sequence (Q16531 403-706): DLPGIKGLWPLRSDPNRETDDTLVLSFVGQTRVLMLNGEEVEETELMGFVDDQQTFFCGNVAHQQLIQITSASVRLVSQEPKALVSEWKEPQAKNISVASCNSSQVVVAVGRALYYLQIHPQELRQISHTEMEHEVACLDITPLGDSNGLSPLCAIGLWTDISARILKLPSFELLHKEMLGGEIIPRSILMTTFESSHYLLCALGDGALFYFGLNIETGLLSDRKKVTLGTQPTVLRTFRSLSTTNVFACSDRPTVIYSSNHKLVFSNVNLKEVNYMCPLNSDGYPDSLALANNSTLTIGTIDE
# DDB1-BPB, sequence (Q16531 403-706): as above
SMILES,Kd (MST) (DDB1-BPB),Inhibition of CUL4A-Vpr-dependent UNG2 degradation [1],IC50 [2],"EC50 [3, 4]",Kd (DDB1-BPB),"EC50 ([3]; MDA-MB-468, 192 h, Table 3, 0 to 20 μM compound, read-out: EC50 OF cell killing, MDA-MB-468)"
CN(c1ccc(-c2nc(C(=O)O)cc3c2[nH]c2ccc(F)cc23)cc1)S(=O)(=O)c1ccccc1 [PA93],Insoluble,robust inhibition,0.21 ± 0.1 µM,11.1 µM,,
"CN(c1ccc(-c2nc(C(=O)O)cc3c2[nH]c2cccc(F)c23)cc1)S(=O)(=O)c1ccccc1 [PA99, 5-fluoro-1-(4-(N-methylphenylsulfonamido)phenyl)-9H-pyrido[3,4-b]indole-3-carboxylic acid]",,robust inhibition,0.38 µM,1.18 µM,2.97 µM,1.18 µM
